From publication PMC8955265, “Systematic Discovery of FBXW7-Binding Phosphodegrons Highlights Mitogen-Activated Protein Kinases as Important Regulators of Intracellular Protein Levels” (International Journal of Molecular Sciences, 2022)

Test system: FBXW7
Experiment: Ratiometric EGFP/DsRed protein degradation assay with degron probes
Type: cell-based, human
Details: putative degron motif in EGFP-fused probe with AAKG2 MAPK docking motif; HEK293T, 48 h after transfection, EGFP/DsRed ratio with and without FBXW7 plasmid; search cycles 1-4
From the text: In order to be able to test putative phosphodegron motifs, a ratiometric protein level monitoring method was adapted to monitor MAPK controlled FBXW7 mediated protein degradation. Briefly, intact DsRed and an EGFP-chimera were expressed in HEK293T cells in equal amounts from an expression plasmid, giving an EGFP/DsRed fluorescence ratio close to one under non-degrading conditions. EGFP was fused to a probe comprised of a putative degron sequence and a known MAPK binding docking motif. EGFP signal is expected to diminish faster than DsRed in cells with more FBXW7 if the probe responded to degradation.
We started out from an intentionally general consensus motif of FBXW7 degrons, inspired by the liberal [TS]P..[TS]P pattern defined for yeast Cdc4 substrates, and scanned the human disordered part of the proteome using SliMSearch4 (the disorder score cut-off was 0.4 and flank length was 5). In all, 22 motifs from this list were subjectively chosen and tested in the ratiometric degradation assay giving only 5 positives (see Supplementary Table S1). Based on the results of this first round, by taking information both from the identified positives and negatives, the consensus motif definition was narrowed to requiring a proline at P + 2, but motifs were allowed to have a phospho-mimicking residue (D or E) at P + 4 because it had been formerly reported that this second phosphorylatable residue may be replaced by aspartate or glutamate. […] In the third round, hydrophobic amino acids were more strictly required at positions −1/−2 and P − 1/2/3 positions were further narrowed and P + 4 position was relaxed based on the identified negatives, which gave a higher hit rate (4 out of 6). This third round gave functional motifs at a good rate, but the used motif definition was very restrictive compared to other known motifs. Finally, in the fourth round, we gave up using an optimal consensus and established the positional relaxation model. […] Hits on this final, most predictive list are presented in Supplementary Table S2. All entries were filtered for motif locations by UniProt annotations, discarding all enzyme-inaccessible (e.g., extracellular) instances. Motifs that had any overlapping PFAM domain indicated were manually assessed using the AlphaFold EBI website. Out of these, only motifs that were highly accessible and located outside of confidently predicted folded domains were kept. We also added kinase consensus compatibility to every motif and the number of experiments where phosphorylation could be detected from PhosphoSitePlus.
The chimera degron module was ordered from IDT as gene Block (gBlock). It consisted of a coiled coil dimerization motif (GCN4: EELLSKNYHLENEVARLKK) to increase sensitivity by allowing multivalent binding, a MAPK binding docking motif (AAKG2: KKNASQKRRSLRVHIPDL), and the CycECO degron motif. The motifs were separated by Gly-Ser-Asn linkers and the gBlock was designed so that the motifs could be easily changed by using unique sets of restriction endonucleases. The gBlock was sub-cloned into the Gateway pENTR4 entry plasmid (Thermo Fisher, Waltham, MA, USA) using restriction enzymes (SalI and NotI). The pENTR4-chimera and the destination plasmid (MSCV-CMV-DsRed-IRES-EGFP-DEST from Addgene; 41941), [28]) were subjected to gateway cloning using LR clonase II enzyme (Invitrogen) to obtain the first DsRed-EGFP-chimera DNA construct containing the cycECO degron. Oligonucleotides corresponding to different degron sequences and docking motifs were ligated into the DsRed-EGFP-chimera DNA construct. The list of all the oligonucleotides used for cloning is provided in Supplementary Table S3. pcDNA3-FLAG-FBXW7α was a kind gift from Michael Pagano (New York University). The FBXW7 arginine mutant (Arg mutant: R465C; R479Q; R505L) was created using two-step PCR and cloned into the pcDNA3-FLAG plasmid. […]

| Sequence | Outcome |
| --- | --- |
| AHELPLTPPADPSYPY [SP5, putative FBXW7 degron motif tested as EGFP-fused degradation probe] | Positive (tested positive, where +FBXW7/control protein level ratio was lower than 1) |
| AIRQSPSPPPEESRG [PDE4A, putative FBXW7 degron motif tested as EGFP-fused degradation probe] | Negative |
| AKEFAPATPPSTPHNSSV [AKAP11-2nd, putative FBXW7 degron motif tested as EGFP-fused degradation probe] | Negative |
| APPIPSPPPSPPPSPAPLEP [CAMTA2, putative FBXW7 degron motif tested as EGFP-fused degradation probe] | Positive (tested positive, where +FBXW7/control protein level ratio was lower than 1) |
| ASPTPPSPPPPPSPPASPSLPP [PP1R37, putative FBXW7 degron motif tested as EGFP-fused degradation probe] | Negative |
| AVRTPPRTPNIV [KSR2-a, putative FBXW7 degron motif tested as EGFP-fused degradation probe] | Negative |
| AVVRTPPKSPSSAK [Tau, putative FBXW7 degron motif tested as EGFP-fused degradation probe] | Negative |
| DLLAALPTPPHNQTEDV [KMT2D-3rd, putative FBXW7 degron motif tested as EGFP-fused degradation probe] | Positive (tested positive, where +FBXW7/control protein level ratio was lower than 1) |
| DRNVIPDTPPSTPLVPSR [AKAP11-1st, putative FBXW7 degron motif tested as EGFP-fused degradation probe] | Positive (tested positive, where +FBXW7/control protein level ratio was lower than 1) |
| ELDLMPYTPPQSTPKSA [PBRM1, putative FBXW7 degron motif tested as EGFP-fused degradation probe] | Negative |
| EQPSHTPPQTPTPPSTPPLGKQ [ARHGAP17, putative FBXW7 degron motif tested as EGFP-fused degradation probe] | Negative |
| FSYQESPPRSPRRMSFSG [AAKG2, putative FBXW7 degron motif tested as EGFP-fused degradation probe] | Negative |
| GEAAGSPVPTPPRSPAQEE [Bcl2L12, putative FBXW7 degron motif tested as EGFP-fused degradation probe] | Negative |
| GEGDRGVSPPPSPFFSAI [FRY, putative FBXW7 degron motif tested as EGFP-fused degradation probe] | Negative |
| GGHLESPARSLPQRP [FAAP20, putative FBXW7 degron motif tested as EGFP-fused degradation probe] | Negative |
| GQAATPETPQPSPPGGSGS [HNF4, putative FBXW7 degron motif tested as EGFP-fused degradation probe] | Negative |
| GSDGASPPASPSIIPR [MAP3K10, putative FBXW7 degron motif tested as EGFP-fused degradation probe] | Negative |
| IHQAGGSPPASSTSSS [RAPTOR, putative FBXW7 degron motif tested as EGFP-fused degradation probe] | Negative |
| KHSNSPPLVTPPQSPVSPQPPA [SMTL2, putative FBXW7 degron motif tested as EGFP-fused degradation probe] | Positive (tested positive, where +FBXW7/control protein level ratio was lower than 1) |
| KMSQPGSPSPKTPTPSTPGDTQ [CHD4, putative FBXW7 degron motif tested as EGFP-fused degradation probe] | Negative |
| KQFLISPPASPPVGWKQV [RCAN1, putative FBXW7 degron motif tested as EGFP-fused degradation probe] | Negative |
